Assay results reported in patent US20110312894A1 (priority 2009, published 2011).
Read-outs that look alike come from different tables or passages of the source.

Assays:
[1] = target: T1, heteromeric α7β2-nAChRs on MS/DB cholinergic neurons (Rattus norvegicus, UniProt P12390+Q05941); assay type: cell-based; conditions: for form-dependent suppression of choline-induced responses: 1 nM of the peptide form
T1 construct: functional nAChRs naturally expressed on rat MS/DB cholinergic neurons; endogenous in cells; host or cells: acutely dissociated MS/DB neurons of 2-4 week-old Wistar rats
T1 sequence (Q05941 23-502): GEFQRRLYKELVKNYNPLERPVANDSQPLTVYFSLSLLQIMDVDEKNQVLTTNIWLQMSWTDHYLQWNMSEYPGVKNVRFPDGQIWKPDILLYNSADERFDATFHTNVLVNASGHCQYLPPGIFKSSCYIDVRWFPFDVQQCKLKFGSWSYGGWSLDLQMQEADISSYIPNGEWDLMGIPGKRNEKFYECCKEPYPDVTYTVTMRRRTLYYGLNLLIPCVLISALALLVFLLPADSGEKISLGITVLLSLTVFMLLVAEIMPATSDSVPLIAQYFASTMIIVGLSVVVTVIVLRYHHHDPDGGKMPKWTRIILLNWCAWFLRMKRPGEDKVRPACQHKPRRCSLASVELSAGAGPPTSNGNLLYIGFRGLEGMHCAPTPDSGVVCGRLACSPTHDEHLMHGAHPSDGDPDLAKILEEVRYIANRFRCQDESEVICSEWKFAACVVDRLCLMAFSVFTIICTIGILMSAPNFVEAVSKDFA
T1 sequence (P12390 25-500): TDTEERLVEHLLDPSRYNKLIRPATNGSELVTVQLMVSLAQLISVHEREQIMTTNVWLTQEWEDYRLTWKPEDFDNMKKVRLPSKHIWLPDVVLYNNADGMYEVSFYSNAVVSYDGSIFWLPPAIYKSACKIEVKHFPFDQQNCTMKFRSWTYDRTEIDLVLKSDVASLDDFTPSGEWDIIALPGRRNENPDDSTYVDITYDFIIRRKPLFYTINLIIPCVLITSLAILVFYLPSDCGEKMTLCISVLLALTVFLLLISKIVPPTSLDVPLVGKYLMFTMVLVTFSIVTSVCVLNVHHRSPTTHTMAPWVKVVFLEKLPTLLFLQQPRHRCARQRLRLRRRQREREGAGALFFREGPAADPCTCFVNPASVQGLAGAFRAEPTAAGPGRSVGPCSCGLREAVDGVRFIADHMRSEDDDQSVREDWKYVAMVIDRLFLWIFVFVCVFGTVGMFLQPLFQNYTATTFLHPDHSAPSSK
Procedure: (§1) Briefly, each postnatal 2-4 week-old Wistar rat or mouse (wild-type C57/B16 or nAChR β2 knockout mice on a C57/B16 background kindly provided by Dr. Marina Picciotto, Yale University) was anesthetized using isoflurane, and the brain was rapidly removed. Several 400-μm coronal slices, which contained the medial septum/diagonal band (MS/DB) or the ventral tegmental area (VTA), were cut using a vibratome (Vibratorne 1000 plus; Jed Pella Inc., Redding, Calif.) in cold (2-4° C.) artificial cerebrospinal fluid (ACSF) and continuously bubbled with carbogen (95% O2-5% CO2). The slices were then incubated in a pre-incubation chamber (Warner Ins., Holliston, Mass.) and allowed to recover for at least 1 h at room temperature ([…]) in oxygenated ACSF. Thereafter, the slices were treated with pronase (1 mg/6 mL) at 31° C. for 30 min and subsequently treated with the same concentration of thermolysin for another 30 min. The MS/DB or VTA region was micropunched out from the slices using a well-polished needle. […] In particular, perforated-patch recording was used to maintain the intracellular ATP concentration at a physiological level. To prepare for perforated-patch whole-cell recording, glass microelectrodes (GC-1.5; Narishige, East Meadow, N.Y.) were fashioned on a two-stage vertical pipette puller (P-830; Narishige, East Meadow, N.Y.), and the resistance of the electrode was 3 to 5 MΩ when filled with the internal solution. A tight seal (>2 GΩ) was formed between the electrode tip and the cell surface, which was followed by a transition from on-cell to whole-cell recording mode due to the partitioning of amphotericin B into the membrane underlying the patch. After whole-cell formation, an access resistance lower than 60 MΩ was acceptable during perforated-patch recordings in current-clamp mode, and an access resistance lower than 30 MΩ was acceptable during voltage-clamp recordings. The series resistance was not compensated in the experiments using dissociated neurons. Under current-clamp configuration, membrane potentials were measured using a patch-clamp amplifier (200B; Axon Instruments, Foster City, Calif.). […] All experiments were performed at room temperature (22±1° C.).

[2] = target: T2, homomeric α7-nAChRs on VTA DAergic neurons (Rattus norvegicus, UniProt Q05941); assay type: cell-based
T2 construct: native nAChR responses in rat MS/DB or VTA neurons; endogenous in cells; host or cells: acutely dissociated VTA dopaminergic neurons of Wistar rats
T2 sequence (Q05941 23-502): as the sequence (Q05941 23-502) above
Procedure: as §1

[3] = target: T3, heterologously expressed heteromeric α7β2-nAChRs (Rattus norvegicus, UniProt P12390+Q05941); assay type: cell-based; conditions: oocytes; 10 mM choline; compared with homomeric α7-nAChR
T3 construct: expressed in transfected cells; host or cells: Xenopus laevis oocytes injected with cRNA (vector pGEMHE)
T3 sequence (Q05941 23-502): as above
T3 sequence (P12390 25-500): as the sequence (P12390 25-500) above
Procedure: The frogs were then allowed to recover from surgery before being returned to the incubation tank. The lobes were cut into small pieces and digested with 0.08 Wunsch U/mL liberase blendzyme 3 (Roche Applied Science, Indianapolis, Ind.) with constant stirring at room temperature for 1.5-2 h. The dispersed oocytes were thoroughly rinsed with incubation solution. Stage VI oocytes were selected and incubated at 16° C. before injection. Micropipettes used for injection were pulled from borosilicate glass (Drummond Scientific, Broomall, Pa.). cRNAs encoding α7 or β2 at proper dilution were injected into oocytes separately or in different ratios using a Nanoject microinjection system (Drummond Scientific, Broomall, Pa.) at a total volume of ˜20-60 nL.
The chamber was grounded through an agarose bridge. The oocytes were voltage-clamped at −70 mV to measure ACh (or choline)-induced currents using GeneClamp 500B (Axon Instruments, Foster City, Calif.).

[4] = target: T4, α7-containing-nAChRs on MS/DB neurons from nAChR β2 knockout mice (Mus musculus, UniProt P49582); assay type: cell-based
T4 construct: endogenous in cells; host or cells: acutely dissociated MS/DB neurons of nAChR β2 subunit knockout mice (C57/Bl6 background)
T4 sequence (P49582 23-502): as the sequence (Q05941 23-502) above, with A402T counted along it
Procedure: (§3) Briefly, each postnatal 2-4 week-old Wistar rat or mouse (wild-type C57/B16 or nAChR β2 knockout mice on a C57/B16 background kindly provided by Dr. Marina Picciotto, Yale University) was anesthetized using isoflurane, and the brain was rapidly removed. Several 400-μm coronal slices, which contained the medial septum/diagonal band (MS/DB) or the ventral tegmental area (VTA), were cut using a vibratome (Vibratorne 1000 plus; Jed Pella Inc., Redding, Calif.) in cold (2-4° C.) artificial cerebrospinal fluid (ACSF) and continuously bubbled with carbogen (95% O2-5% CO2). The slices were then incubated in a pre-incubation chamber (Warner Ins., Holliston, Mass.) and allowed to recover for at least 1 h at room temperature (22±PC) in oxygenated ACSF. Thereafter, the slices were treated with pronase (1 mg/6 mL) at 31° C. for 30 min and subsequently treated with the same concentration of thermolysin for another 30 min. The MS/DB or VTA region was micropunched out from the slices using a well-polished needle. […] In particular, perforated-patch recording was used to maintain the intracellular ATP concentration at a physiological level. […] Under current-clamp configuration, membrane potentials were measured using a patch-clamp amplifier (200B; Axon Instruments, Foster City, Calif.). […]

MS/DB neurons = test: Current-clamp recording of spontaneous action potential firing in dissociated MS/DB neurons; assay type: cell-based, rat; conditions: 1 μM
Procedure: as §3

[5] = target: T5, α7β2-nAChRs on MS/DB neurons from wild-type mice (Mus musculus, UniProt P49582+Q9ERK7); test: Whole-cell current recordings, MS/DB neurons from wild-type mice; assay type: cell-based; conditions: 1 nM peptide
T5 construct: heteromeric α7β2-nAChRs exist in rodent basal forebrain cholinergic neurons; endogenous in cells; host or cells: acutely dissociated MS/DB neurons of wild-type C57/Bl6 mice
T5 sequence (P49582 23-502): as the sequence (Q05941 23-502) above, with A402T counted along it
T5 sequence (Q9ERK7 26-501): as the sequence (P12390 25-500) above, with A350T, V371M, R379Q, T383A, P387L, V391M, V449I, P468S counted along it
Procedure: as §3

GABAA receptors = test: GABA-induced whole-cell currents in rat MS/DB cholinergic neurons; assay type: cell-based; conditions: 1 nM peptide; 0.1 mM GABA
Procedure: (§2) Briefly, each postnatal 2-4 week-old Wistar rat or mouse (wild-type C57/B16 or nAChR β2 knockout mice on a C57/B16 background kindly provided by Dr. Marina Picciotto, Yale University) was anesthetized using isoflurane, and the brain was rapidly removed. Several 400-μm coronal slices, which contained the medial septum/diagonal band (MS/DB) or the ventral tegmental area (VTA), were cut using a vibratome (Vibratorne 1000 plus; Jed Pella Inc., Redding, Calif.) in cold (2-4° C.) artificial cerebrospinal fluid (ACSF) and continuously bubbled with carbogen (95% O2-5% CO2). The slices were then incubated in a pre-incubation chamber (Warner Ins., Holliston, Mass.) and allowed to recover for at least 1 h at room temperature ([…]) in oxygenated ACSF. Thereafter, the slices were treated with pronase (1 mg/6 mL) at 31° C. for 30 min and subsequently treated with the same concentration of thermolysin for another 30 min. The MS/DB or VTA region was micropunched out from the slices using a well-polished needle. […] In particular, perforated-patch recording was used to maintain the intracellular ATP concentration at a physiological level. […] Under current-clamp configuration, membrane potentials were measured using a patch-clamp amplifier (200B; Axon Instruments, Foster City, Calif.). […]

[6] = system: ionotropic glutamate receptors; test: Glutamate-induced whole-cell currents in rat MS/DB cholinergic neurons; assay type: cell-based; conditions: 1 nM peptide; 1 mM glutamate
Procedure: as §2

Question: Which “Hill coefficient, inhibition of choline-induced currents” value ([1]; 10 mM choline, MS/DB neurons, n=8) does the source give for `CO[C@H]1CC=C2CCN3CCC4=C(CC(=O)OC4)[C@]23C1` [DHβE, dihydro-β-erythroidine] here?
Answer: 0.9

Question: What about the IC50 ([1]; 10 mM choline, MS/DB neurons, n=8, read-out: IC50, inhibition of choline-induced currents) of the same molecule?
Answer: 170 nM

Question: What about the “potency difference as inhibitor of choline-induced current, MS/DB vs VTA neurons” value ([1]; MS/DB neurons compared with VTA neurons) of the same molecule?
Answer: ~500 fold

Question: What about the “Hill coefficient, inhibition of choline-induced currents” value ([2]; 10 mM choline, VTA neurons) of the same molecule?
Answer: 0.3

Question: What about the IC50 ([2]; 10 mM choline, VTA neurons, n=7, read-out: IC50, inhibition of choline-induced currents) of the same molecule?
Answer: > 100000 nM

Question: What about the “sensitivity to functional blockade, α7β2- vs α7-nAChR” value [3] of the same molecule?
Answer: more sensitive

Question: And the “sensitivity of choline-induced currents to antagonist” value ([4]; MS/DB neurons from β2 knockouts compared with wild-type)?
Answer: lower sensitivity

Question: Which results are given for `CNCC/C=C/c1cccnc1` [RJR-2403]?
Answer: agonist-evoked inward current compared with ACh-induced response [1]: insensitive; agonist-evoked current compared with ACh-induced response [2]: mimicked

Question: How did the “effect on spontaneous action potential firing” value (MS/DB neurons) turn out when `C[C@@H]1O[C@H](C[N+](C)(C)C)C[C@H]1O` [muscarine] was run?
Answer: insensitive

Question: Which “effect on choline-induced currents” value [1] does the source give for “Aβ1-42: amyloid beta peptides at positions 1-42 of the amyloid precursor protein, purchased from rPeptide” here?
Answer: progressively inhibited with time

Question: And the “effect on choline-induced currents” value ([1]; 0.1 nM peptide, MS/DB neurons)?
Answer: negligible

Question: What about the “effect on ACh-induced current” value ([1]; 1 nM peptide, 1 mM ACh, MS/DB neurons) of the same molecule?
Answer: evident

Question: What about the “reversibility of inhibition of choline responses” value ([1]; 1 nM, recovery after 6 min of peptide washout) of the same molecule?
Answer: reversibly

Question: What about the “effect on choline-induced currents” value ([2]; 1 nM peptide, VTA DAergic neurons) of the same molecule?
Answer: not sensitive

Question: What about the “effect on choline-induced currents” value [5] of the same molecule?
Answer: did suppress

Question: And the “effect on choline-induced currents” value ([4]; 1 nM peptide, MS/DB neurons from β2−/− mice)?
Answer: failed to suppress

Question: And the “inhibition of GABA-induced currents” value (GABAA receptors)?
Answer: insensitive

Question: And the “inhibition of glutamate-induced currents” value [6]?
Answer: insensitive

Question: For “fibrillar Aβ: Aβ1-42 stock incubated at 37° C. for 48 h at pH 6.0, predominantly fibrillar form”, which “form-dependent suppression of choline-induced responses” value (“form-dependent suppression” for short) ([1]; MS/DB neurons) is on record?
Answer: weaker inhibitory effect

Question: How did the “form-dependent suppression” value ([1]; MS/DB neurons) turn out when “monomeric Aβ1-42: Aβ1-42 reconstituted in DMSO, predominant monomeric form” was run?
Answer: failed to suppress

Question: How did the “form-dependent suppression” value ([1]; MS/DB neurons) turn out when “oligomeric Aβ1-42: Aβ1-42 reconstituted in distilled water, predominantly oligomeric form” was run?
Answer: greatest suppression
